Assay results reported in patent publication US20170313808A1, “BIOACTIVE POLYMERIC LIQUID FORMULATIONS OF ABSORBABLE, SEGMENTED APLIPHATIC POLYURETHANE COMPOSITIONS” (priority 2008, published 2017).

Test system: SKOV3
Test: Testing with ovarian cancer cell lines (SKOV3)
Format: cell-based
Details: ovarian cancer cell line SKOV3

**Q.** For `OC(Cn1cncn1)(Cn1cncn1)c1ccc(F)cc1F` [Fluconazole], which “Additional Uses and Properties” value is on record?
**A.** Antineoplastic (as per testing

**Q.** Which “Additional Uses and Properties” value does the source give for `Cc1oncc1C(=O)Nc1ccc(C(F)(F)F)cc1` [Leflunomide] here?
**A.** Antineoplastic, as per testing

**Q.** With `Clc1ccc(COC(Cn2ccnc2)c2ccc(Cl)cc2Cl)c(Cl)c1` (stereo not drawn) [Miconazole] as the compound, how does the “Additional Uses and Properties” value read?
**A.** Antineoplastic (as per testing

**Q.** For `CO[C@@]12[C@H](COC(N)=O)C3=C(C(=O)C(C)=C(N)C3=O)N1C[C@@H]1N[C@@H]12` [Mitomycin], which “Additional Uses and Properties” value is on record?
**A.** Antineoplastic, as per testing

Test system: S aureous
Test: Antibacterial testing with S aureous
Format: cell-based
Details: not given

**Q.** `O=c1[nH]cc(F)c(=O)[nH]1` [5-Fluorouracil] was tested. Which “Additional Uses and Properties” value did it give?
**A.** Antibacterial as per testing

**Q.** With `CC(=O)O[C@H]1C(=O)[C@@]2(C)[C@H]([C@H](OC(=O)c3ccccc3)[C@]3(O)C[C@H](OC(=O)[C@H](O)[C@@H](NC(=O)c4ccccc4)c4ccccc4)C(C)=C1C3(C)C)[C@]1(OC(C)=O)CO[C@@H]1C[C@@H]2O` [Paclitaxel] as the compound, how does the “Additional Uses and Properties” value read?
**A.** Antibacterial as per testing
